System: RAW264.7 siRNA cell lines
Experiment: Cytokine production in stably transfected RAW264.7 siRNA (MyD88, TRIF, LUC) cell lines
Assay type: cell-based, mouse
Settings: for potency for TNFα production: 20 hours
Experimental: Exponentially growing RAW264.7 cells are stably transfected with FuGene 6 by conventional methods in Optimem (Roche, Indianapolis Ind.) with psiRNA-mTICAM1, psiRNA-mMyD88, or psiRNA-LUC (irrelevant control) plasmids containing shRNA sequences for protein knockdown, a Zeocin resistance gene and a GFP coding sequence (InVivoGen, San Diego, Calif.). Transfection efficiency after selection is determined by percent GFP positive cells using the ImageStream.
RNA interference (RNAi) is utilized to disrupt expression of specific genes that are involved in TLR signaling pathways: […] and MyD88. RAW264.7 siRNA cell lines are prepared using commercially available plasmids (Invivogen). These plasmids contain a Zeocin selection marker, a sequence coding for GFP and the sequence coding for shRNA for knockdown. Once the cells are efficiently transfected, stable cell lines are generated through antibiotic selection. Purity of cultures is determined by GFP+ cells within the culture system. An irrelevant plasmid is also used to stably transfect cells as a control.
To determine whether TRIF or MyD88 are required for the cytokine response after stimulation with L and D isomers, stably transfected siRNA cell lines are stimulated for 20 hours (in an assay similar to the MM6 potency assay) or 4 hours (to capture MyD88 induced cytokine responses) and cellular supernatants are assayed for TNFα (MyD88) and IP-10 (TRIF). Twenty hours post-stimulation, the irrelevant control, LUC cell line has a similar IP-10 induction pattern as the wt RAW264.7 cells shown previously. […] When TRIF is intact (in MyD88 knockdown cell lines) the IP-10 levels remain dose responsive and total cytokine is increased above the irrelevant control (LUC). Other assay systems (including human and mouse systems) support the hypothesis that both L and D isomers are efficient at inducing TRIF mediated cytokines.
In order to better discriminate the MyD88 requirement for TNFα production, siRNA knockdown cell lines are examined for TNFα production after four hours of AGP stimulation (FIG. 35). […]

SMILES: CCCCCCCCCCCC(CC(=O)NC(COC1OC(CO)C(OP(=O)(O)O)C(OC(=O)CC(CCCCCCCCCCC)OC(=O)CCCCCCCCC)C1NC(=O)CC(CCCCCCCCCCC)OC(=O)CCCCCCCCC)C(=O)O)OC(=O)CCCCCCCCC.CCN(CC)CC (stereo not drawn) [CRX-527]
- potency for TNFα production (MyD88 or TRIF knocked down): same increased potency
- potency at inducing TNFα versus equivalent dose of CRX-547 (four hours): more potent
- potency for TNFα production (irrelevant control (LUC)): more potent
